Laboratory results as given in ChEMBL document CHEMBL1201862, “PubChem BioAssay data set” (2004).
Active and inactive are the calls of the source.

Columns and labels:
HEK293 [1] = experiment: cells; type: functional, cell-based; settings: Homo sapiens
HEK293 [2] = experiment: cells; settings: Homo sapiens
HEK293 [3] = experiment: NOD1 signaling inhibitors, primary screen, cell-based, luminescence, uHTS (AID 1578); type: functional; settings: Homo sapiens
HEK293 [4] = experiment: cells; type: functional, cell-based; settings: Homo sapiens; remark: listed apart in the source
HEK293 [5] = experiment: NOD2 signaling inhibitors in MDP-stimulated cells, cell-based, uHTS, luminescence (AID 2001); type: functional; settings: Homo sapiens
HEK293 [6] = experiment: cells; type: functional, cell-based; settings: Homo sapiens; remark: listed apart in the source
[7] = target: T1, Low molecular weight phosphotyrosine protein phosphatase (Homo sapiens, UniProt P24666); type: functional; settings: read-out: IC50_Mean
T1 sequence (P24666 whole entry): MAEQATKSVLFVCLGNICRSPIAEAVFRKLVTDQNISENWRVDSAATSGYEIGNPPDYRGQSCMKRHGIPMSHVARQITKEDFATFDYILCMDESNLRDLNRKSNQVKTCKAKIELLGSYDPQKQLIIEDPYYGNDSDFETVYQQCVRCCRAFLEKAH

[8] = target: T2, Dual specificity protein phosphatase 3 (Homo sapiens, UniProt P51452); experiment: VHR1 phosphatase inhibitors, biochemical (AID 1878)
T2 sequence (P51452 whole entry): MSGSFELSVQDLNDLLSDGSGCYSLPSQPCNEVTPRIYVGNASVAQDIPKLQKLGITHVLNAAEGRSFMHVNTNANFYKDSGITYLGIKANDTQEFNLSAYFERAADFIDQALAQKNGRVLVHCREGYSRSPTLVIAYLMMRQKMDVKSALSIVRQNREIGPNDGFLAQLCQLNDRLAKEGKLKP

[9] = target: T3, Tyrosine-protein phosphatase non-receptor type 22 (Homo sapiens, UniProt Q9Y2R2); experiment: LYP1 Fluorescent Assay using OMFP substrate for In Vitro dose response studies. [Related pubchem assays (depositor defined):AID1779, AID1784, AID435024]
T3 sequence (Q9Y2R2 whole entry): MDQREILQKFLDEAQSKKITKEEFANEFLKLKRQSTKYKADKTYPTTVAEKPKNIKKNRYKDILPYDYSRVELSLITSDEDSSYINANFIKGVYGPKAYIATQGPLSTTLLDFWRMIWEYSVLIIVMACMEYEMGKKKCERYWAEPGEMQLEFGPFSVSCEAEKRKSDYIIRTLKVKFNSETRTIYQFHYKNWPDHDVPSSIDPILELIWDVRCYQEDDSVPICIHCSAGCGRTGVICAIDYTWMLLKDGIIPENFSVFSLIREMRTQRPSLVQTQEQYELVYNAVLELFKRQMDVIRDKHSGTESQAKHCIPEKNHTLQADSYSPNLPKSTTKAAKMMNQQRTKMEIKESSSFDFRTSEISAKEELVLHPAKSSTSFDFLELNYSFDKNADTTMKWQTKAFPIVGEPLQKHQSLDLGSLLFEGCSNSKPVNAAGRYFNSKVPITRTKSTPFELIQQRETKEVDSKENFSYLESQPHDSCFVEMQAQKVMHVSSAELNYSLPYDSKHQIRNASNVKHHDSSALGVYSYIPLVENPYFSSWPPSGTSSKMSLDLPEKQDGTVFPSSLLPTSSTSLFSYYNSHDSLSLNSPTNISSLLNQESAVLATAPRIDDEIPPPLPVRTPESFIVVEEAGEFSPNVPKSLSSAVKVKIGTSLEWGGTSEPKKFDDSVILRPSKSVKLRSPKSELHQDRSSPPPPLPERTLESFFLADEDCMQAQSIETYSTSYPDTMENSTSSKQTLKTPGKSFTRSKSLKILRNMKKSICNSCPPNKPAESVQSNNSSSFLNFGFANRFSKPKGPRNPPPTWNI

[10] = target: T3, Tyrosine-protein phosphatase non-receptor type 22; experiment: SAR LYP1 Fluorescent Assay using OMFP substrate for In Vitro dose response studies - Set 2. [Related pubchem assays (depositor defined):AID1779, AID1784, AID2140, AID449726, AID488869]; type: functional
[11] = target: T3, Tyrosine-protein phosphatase non-receptor type 22; experiment: SAR LYP1 Fluorescent Assay using OMFP substrate for In Vitro dose response studies - Set 3. [Related pubchem assays (depositor defined):AID1779, AID1784, AID2140, AID2686]; type: functional
[12] = target: T3, Tyrosine-protein phosphatase non-receptor type 22; experiment: LYP (PTPN22) phosphatase inhibitor potency, SAR follow-up, biochemical, pCAP fluorogenic substrate, fluorescence, set 3 (AID 449727); type: functional
[13] = target: T3, Tyrosine-protein phosphatase non-receptor type 22; experiment: SAR LYP1 Fluorescent Assay using pCAP substrate for In Vitro dose response studies - Set 2. [Related pubchem assays (depositor defined):AID1779, AID1784, AID2135, AID449727]; type: functional
[14] = target: T2, Dual specificity protein phosphatase 3; experiment: VHR1 phosphatase inhibitors, primary screen, biochemical, absorbance, uHTS (AID 1654)
[15] = target: T4, Dual specificity protein phosphatase 6 (Rattus norvegicus, UniProt Q64346); experiment: MKP-3 phosphatase inhibitors, primary screen, biochemical, rat enzyme, in vitro (AID 425)
T4 sequence (Q64346 whole entry): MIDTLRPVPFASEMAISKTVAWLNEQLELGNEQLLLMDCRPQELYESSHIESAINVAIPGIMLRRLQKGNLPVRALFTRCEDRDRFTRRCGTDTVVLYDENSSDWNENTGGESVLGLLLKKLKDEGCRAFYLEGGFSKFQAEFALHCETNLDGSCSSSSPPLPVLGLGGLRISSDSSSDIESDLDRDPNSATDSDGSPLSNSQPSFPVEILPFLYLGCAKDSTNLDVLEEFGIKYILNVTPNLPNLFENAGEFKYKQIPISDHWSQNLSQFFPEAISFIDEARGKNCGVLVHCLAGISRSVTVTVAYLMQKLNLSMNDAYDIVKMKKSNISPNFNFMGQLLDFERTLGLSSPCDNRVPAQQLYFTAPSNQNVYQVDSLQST

[16] = target: T5, Tyrosine-protein phosphatase non-receptor type 7 (Homo sapiens, UniProt P35236); experiment: HePTP (PTPN7) phosphatase inhibitor potency, SAR follow-up, biochemical, set 2 (AID 449736); type: functional
T5 sequence (P35236 whole entry): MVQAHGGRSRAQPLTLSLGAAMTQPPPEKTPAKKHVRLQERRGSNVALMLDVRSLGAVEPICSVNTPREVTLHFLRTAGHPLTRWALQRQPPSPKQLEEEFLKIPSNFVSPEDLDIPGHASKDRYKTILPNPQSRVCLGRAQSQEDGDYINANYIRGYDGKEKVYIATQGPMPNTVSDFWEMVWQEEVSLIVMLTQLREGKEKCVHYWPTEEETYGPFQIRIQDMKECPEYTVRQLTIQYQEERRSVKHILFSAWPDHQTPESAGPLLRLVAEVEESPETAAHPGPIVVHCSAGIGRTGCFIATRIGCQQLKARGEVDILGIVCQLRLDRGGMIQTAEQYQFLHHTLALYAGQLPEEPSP

[17] = target: T5, Tyrosine-protein phosphatase non-receptor type 7; experiment: HTS HePTP Fluorescent Assay using OMFP substrate for In Vitro dose response studies. [Related pubchem assays (depositor defined):AID1059, AID1077, AID1784, AID2068, AID2085, AID435032, AID521]; type: functional
[18] = target: T3, Tyrosine-protein phosphatase non-receptor type 22; experiment: inhibitors of LYP phosphatase, biochemical, fluorescence intensity, uHTS (AID 1779)
[19] = target: T3, Tyrosine-protein phosphatase non-receptor type 22; experiment: PubChem AID 2140
[20] = target: T3, Tyrosine-protein phosphatase non-receptor type 22; type: functional
[21] = target: Tyrosine-protein phosphatase non-receptor type 12 (Homo sapiens, UniProt Q05209); experiment: SAR Selectivity Analysis of small molecule inhibitors of PEST using pCAP in a fluorescence assay. [Related pubchem assays (depositor defined):AID1779, AID1784, AID2135]; type: functional
Sequence of Tyrosine-protein phosphatase non-receptor type 12 (Q05209 whole entry): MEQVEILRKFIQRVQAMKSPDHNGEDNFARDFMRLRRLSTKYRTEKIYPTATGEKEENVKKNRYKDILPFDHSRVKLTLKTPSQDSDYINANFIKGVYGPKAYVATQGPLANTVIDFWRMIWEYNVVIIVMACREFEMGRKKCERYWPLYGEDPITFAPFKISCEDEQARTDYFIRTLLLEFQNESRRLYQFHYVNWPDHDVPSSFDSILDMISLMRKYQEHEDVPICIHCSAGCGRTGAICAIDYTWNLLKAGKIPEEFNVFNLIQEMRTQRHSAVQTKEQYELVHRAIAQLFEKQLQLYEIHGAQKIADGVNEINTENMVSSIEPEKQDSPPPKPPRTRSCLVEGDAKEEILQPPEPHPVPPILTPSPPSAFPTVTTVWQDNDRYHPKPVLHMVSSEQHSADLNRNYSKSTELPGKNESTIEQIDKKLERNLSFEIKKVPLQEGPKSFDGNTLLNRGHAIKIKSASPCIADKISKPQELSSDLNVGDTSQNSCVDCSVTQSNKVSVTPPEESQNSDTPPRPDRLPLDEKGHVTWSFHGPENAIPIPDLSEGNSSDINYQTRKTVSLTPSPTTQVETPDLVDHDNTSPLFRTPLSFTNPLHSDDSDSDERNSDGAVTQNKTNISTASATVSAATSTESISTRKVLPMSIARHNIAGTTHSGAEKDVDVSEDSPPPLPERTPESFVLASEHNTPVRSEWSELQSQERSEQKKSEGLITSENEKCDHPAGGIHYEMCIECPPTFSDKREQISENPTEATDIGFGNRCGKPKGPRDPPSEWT

[22] = target: T1, Low molecular weight phosphotyrosine protein phosphatase; type: functional; settings: read-out: IC50_Mean; remark: listed apart in the source
[23] = target: T3, Tyrosine-protein phosphatase non-receptor type 22; experiment: PubChem AID 2135
[24] = target: T5, Tyrosine-protein phosphatase non-receptor type 7; type: functional
[25] = target: Lysine-specific demethylase 4C (Homo sapiens, UniProt Q9H3R0); experiment: GASC-1 (JMJD2C) histone demethylase inhibitors, dose response, biochemical, DELFIA europium, cherry-picked samples (AID 488835); type: functional
Sequence of Lysine-specific demethylase 4C (Q9H3R0 whole entry): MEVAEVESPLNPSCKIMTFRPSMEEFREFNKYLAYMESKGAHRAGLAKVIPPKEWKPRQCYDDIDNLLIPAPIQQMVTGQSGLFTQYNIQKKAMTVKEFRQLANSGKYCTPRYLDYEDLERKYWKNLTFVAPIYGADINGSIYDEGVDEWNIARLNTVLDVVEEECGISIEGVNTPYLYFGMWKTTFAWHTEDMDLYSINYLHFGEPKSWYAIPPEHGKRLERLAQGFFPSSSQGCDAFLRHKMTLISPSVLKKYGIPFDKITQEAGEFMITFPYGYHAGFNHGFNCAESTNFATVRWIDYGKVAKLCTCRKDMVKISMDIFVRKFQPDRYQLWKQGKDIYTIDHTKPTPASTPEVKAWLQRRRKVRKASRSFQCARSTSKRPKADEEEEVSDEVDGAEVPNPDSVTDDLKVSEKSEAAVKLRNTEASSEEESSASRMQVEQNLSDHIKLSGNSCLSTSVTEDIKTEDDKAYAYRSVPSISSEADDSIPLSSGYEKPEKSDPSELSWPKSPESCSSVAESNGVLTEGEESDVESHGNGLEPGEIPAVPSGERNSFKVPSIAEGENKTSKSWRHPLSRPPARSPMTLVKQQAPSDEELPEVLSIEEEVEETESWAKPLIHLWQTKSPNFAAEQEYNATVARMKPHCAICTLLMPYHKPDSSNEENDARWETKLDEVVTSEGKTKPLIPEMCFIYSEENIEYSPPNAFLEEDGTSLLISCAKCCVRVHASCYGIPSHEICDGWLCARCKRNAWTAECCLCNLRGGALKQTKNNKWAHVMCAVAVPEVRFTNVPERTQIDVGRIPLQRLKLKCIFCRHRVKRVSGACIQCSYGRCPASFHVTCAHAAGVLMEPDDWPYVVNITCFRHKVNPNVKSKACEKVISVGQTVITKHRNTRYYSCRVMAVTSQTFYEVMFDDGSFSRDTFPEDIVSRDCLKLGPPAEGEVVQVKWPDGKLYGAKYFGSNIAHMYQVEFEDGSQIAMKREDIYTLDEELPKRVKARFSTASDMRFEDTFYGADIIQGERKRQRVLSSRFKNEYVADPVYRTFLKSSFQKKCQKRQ

[26] = growth induction of Burl-1 ts yeast mutant, dose response, counter-screen for SUMOylation pathway inhibitor project, whole organism, S. cerevisiae, luminescence (AID 463199); type: functional
[27] = target: Lysine-specific demethylase 4A (Homo sapiens, UniProt O75164); experiment: JMJD2A histone demethylase inhibitors, dose response, selectivity assay for GASC-1 inhibitor project, biochemical, DELFIA europium, cherry-picked samples (AID 488840)
Sequence of Lysine-specific demethylase 4A (O75164 whole entry): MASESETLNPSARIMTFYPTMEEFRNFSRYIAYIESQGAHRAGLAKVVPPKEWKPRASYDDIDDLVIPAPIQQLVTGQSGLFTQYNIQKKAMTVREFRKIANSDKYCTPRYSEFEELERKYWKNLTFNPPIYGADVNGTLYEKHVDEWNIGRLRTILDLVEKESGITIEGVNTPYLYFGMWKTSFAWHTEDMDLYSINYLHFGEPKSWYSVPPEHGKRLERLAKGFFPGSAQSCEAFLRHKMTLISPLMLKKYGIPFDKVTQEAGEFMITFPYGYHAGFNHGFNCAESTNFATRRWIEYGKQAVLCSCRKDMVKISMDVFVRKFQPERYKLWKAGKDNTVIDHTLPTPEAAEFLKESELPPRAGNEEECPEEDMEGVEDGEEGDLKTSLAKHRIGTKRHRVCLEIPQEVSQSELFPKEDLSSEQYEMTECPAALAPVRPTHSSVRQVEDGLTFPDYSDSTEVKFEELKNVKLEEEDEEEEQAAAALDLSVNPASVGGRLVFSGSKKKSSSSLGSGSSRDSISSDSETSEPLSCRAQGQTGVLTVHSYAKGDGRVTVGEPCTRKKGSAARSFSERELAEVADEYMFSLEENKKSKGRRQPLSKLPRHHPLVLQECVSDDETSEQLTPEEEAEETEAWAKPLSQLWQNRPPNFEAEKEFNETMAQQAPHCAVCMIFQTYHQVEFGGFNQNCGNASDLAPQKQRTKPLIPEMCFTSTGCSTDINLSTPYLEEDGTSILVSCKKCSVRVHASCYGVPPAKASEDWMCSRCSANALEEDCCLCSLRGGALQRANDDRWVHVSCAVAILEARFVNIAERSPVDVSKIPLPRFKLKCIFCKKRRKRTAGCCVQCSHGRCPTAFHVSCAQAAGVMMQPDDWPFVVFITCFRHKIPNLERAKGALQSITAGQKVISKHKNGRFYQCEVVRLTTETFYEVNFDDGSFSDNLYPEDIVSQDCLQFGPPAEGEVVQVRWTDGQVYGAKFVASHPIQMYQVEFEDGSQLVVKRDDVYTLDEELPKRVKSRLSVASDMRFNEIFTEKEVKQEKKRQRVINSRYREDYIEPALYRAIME

Cytochrome P450 2C19 = Cytochrome P450 2C19 (Homo sapiens, UniProt P33261); experiment: Cytochrome panel assay with activity outcomes. Panel member name: p450-cyp2c19 Compounds with AC50 equal or less than 10 uM are considered active; type: functional
Sequence of Cytochrome P450 2C19 (P33261 whole entry): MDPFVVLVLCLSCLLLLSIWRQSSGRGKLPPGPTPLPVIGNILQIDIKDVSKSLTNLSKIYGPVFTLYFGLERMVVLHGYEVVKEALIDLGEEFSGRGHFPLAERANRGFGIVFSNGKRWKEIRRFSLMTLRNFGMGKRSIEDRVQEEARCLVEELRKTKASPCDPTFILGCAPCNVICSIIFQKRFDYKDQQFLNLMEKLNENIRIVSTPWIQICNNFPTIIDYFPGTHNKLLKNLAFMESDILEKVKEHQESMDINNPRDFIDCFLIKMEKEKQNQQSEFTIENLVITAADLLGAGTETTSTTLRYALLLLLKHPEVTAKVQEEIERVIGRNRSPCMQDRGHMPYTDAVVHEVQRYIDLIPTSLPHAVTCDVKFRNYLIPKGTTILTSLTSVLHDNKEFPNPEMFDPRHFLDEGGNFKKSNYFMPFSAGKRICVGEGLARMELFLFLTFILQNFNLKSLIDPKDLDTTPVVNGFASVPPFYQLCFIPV

Cytochrome P450 1A2 = target: T6, Cytochrome P450 1A2 (Homo sapiens, UniProt P05177);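 note: PubChem cytochrome P450 panel assay, CYP1A2 panel member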
T6 sequence (P05177 whole entry): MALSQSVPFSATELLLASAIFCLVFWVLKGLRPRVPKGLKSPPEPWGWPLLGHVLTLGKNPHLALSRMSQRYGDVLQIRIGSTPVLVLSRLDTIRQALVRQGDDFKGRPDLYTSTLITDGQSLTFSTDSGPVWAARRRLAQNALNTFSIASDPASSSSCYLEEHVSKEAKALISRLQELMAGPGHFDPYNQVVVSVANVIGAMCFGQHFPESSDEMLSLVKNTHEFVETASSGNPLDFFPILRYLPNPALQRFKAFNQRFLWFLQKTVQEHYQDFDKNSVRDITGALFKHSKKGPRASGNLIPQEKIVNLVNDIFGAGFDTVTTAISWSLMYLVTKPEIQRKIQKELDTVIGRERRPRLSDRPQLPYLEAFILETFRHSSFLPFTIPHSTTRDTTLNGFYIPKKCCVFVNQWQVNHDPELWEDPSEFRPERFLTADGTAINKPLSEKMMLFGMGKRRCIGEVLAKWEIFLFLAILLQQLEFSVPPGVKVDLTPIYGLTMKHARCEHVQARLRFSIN

Cytochrome P450 2D6 = Cytochrome P450 2D6 (Homo sapiens, UniProt P10635);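 note: CYP2D6 member of a cytochrome P450 panel assay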
Sequence of Cytochrome P450 2D6 (P10635 whole entry): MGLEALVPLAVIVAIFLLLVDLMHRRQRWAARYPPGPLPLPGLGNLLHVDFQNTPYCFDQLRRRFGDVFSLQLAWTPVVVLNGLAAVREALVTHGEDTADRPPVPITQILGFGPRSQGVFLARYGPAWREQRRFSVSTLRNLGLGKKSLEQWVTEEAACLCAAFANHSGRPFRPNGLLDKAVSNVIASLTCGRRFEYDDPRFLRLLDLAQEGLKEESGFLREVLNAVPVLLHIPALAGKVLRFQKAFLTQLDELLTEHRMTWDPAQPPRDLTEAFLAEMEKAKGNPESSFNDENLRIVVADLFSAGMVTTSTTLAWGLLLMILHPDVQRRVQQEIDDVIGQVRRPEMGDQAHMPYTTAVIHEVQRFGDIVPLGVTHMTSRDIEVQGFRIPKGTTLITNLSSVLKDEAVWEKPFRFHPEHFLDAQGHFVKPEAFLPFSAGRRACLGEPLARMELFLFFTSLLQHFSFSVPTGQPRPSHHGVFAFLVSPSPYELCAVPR

**Q.** For `O=C(CSc1nc(O)c2c(-c3ccccc3)csc2n1)Nc1ccccc1`, which IC50 (HEK293 [1]) is on record?
**A.** 16 µM (active)

**Q.** And the IC50 (HEK293 [2])?
**A.** > 20 µM (inactive)

**Q.** And the EC50 (HEK293 [3])?
**A.** 5.71 µM (active)

**Q.** And the IC50 (HEK293 [4])?
**A.** 4.78 µM (active)

**Q.** And the IC50 (HEK293 [5])?
**A.** 1.93 µM (active)

**Q.** What about the IC50 (HEK293 [6]) of the same compound?
**A.** > 20 µM (inactive)

**Q.** Which IC50 [7] does the source give for `Cc1ccc(/C=C/c2nc(O)c3c(C)c(C(=O)O)sc3n2)cc1[N+](=O)[O-]` here?
**A.** > 80 µM (inactive)

**Q.** What about the IC50 [8] of the same compound?
**A.** 1.62 µM (active)

**Q.** What about the IC50 [9] of the same compound?
**A.** 16.8 µM (active)

**Q.** What about the IC50 [10] of the same compound?
**A.** 4.56 µM (active)

**Q.** What about the IC50 [11] of the same compound?
**A.** 10.7 µM (active)

**Q.** What about the IC50 [12] of the same compound?
**A.** 6.19 µM (active)

**Q.** And the IC50 [13]?
**A.** 3.17 µM (active)

**Q.** What about the IC50 [14] of the same compound?
**A.** 11.1 µM (active)

**Q.** And the IC50 [15]?
**A.** 8.48 µM (active)

**Q.** And the IC50 [16]?
**A.** 2.92 µM (active)

**Q.** And the IC50 [17]?
**A.** > 99 µM (inactive)

**Q.** What about the IC50 [18] of the same compound?
**A.** 12.9 µM (active)

**Q.** And the IC50 [19]?
**A.** 50.9 µM (active)

**Q.** What about the IC50 [20] of the same compound?
**A.** 11.2 µM (active)

**Q.** What about the IC50 [21] of the same compound?
**A.** 3.43 µM (active)

**Q.** And the IC50 [22]?
**A.** 32.7 µM (inactive)

**Q.** What about the IC50 [23] of the same compound?
**A.** 6.6 µM (active)

**Q.** And the IC50 [24]?
**A.** 12.2 µM (active)

**Q.** With `CCCn1c(SCC(=O)NNC(=O)c2ccc(C)cc2)nnc1C(C)C` as the compound, how does the AC50 [25] read?
**A.** 9.91 µM (active)

**Q.** Which AC50 [26] does the source give for `CCOC(=O)c1c(CN2CCCCC2)n(C)c2cc(Br)c(O)c(CN(C)C)c12` here?
**A.** 52.5 µM (active)

**Q.** With `O=c1nc(SCc2cccc(C(F)(F)F)c2)nc2ccccn12` as the compound, how does the AC50 [27] read?
**A.** > 60 µM (inactive)

**Q.** Which AC50 (Cytochrome P450 2C19) does the source give for `CN(C)CCN(c1ccccn1)c1ccccn1` here?
**A.** inconclusive

**Q.** And the AC50 (Cytochrome P450 1A2)?
**A.** inconclusive

**Q.** And the AC50 (Cytochrome P450 2D6)?
**A.** 3.98 µM (inconclusive)
